The values that follow come from patent US5102873A (priority 1989, dated 1992).

Converted amounts (≈) assume the structure as drawn. “And” between values parts separate entries of the source, which are not always exact repeats. Equal entries are not always repeated. A value given as a limit tells only on which side of the number the result lay.

The subject of series [1] is vaccinia virus. The series is described as follows: microbe, parasite or virus in culture. Type of series: cell-based. The conditions noted are these: for IC50: Orthopoxvirus vaccinia, Vero, read-out: ID50 (inhibitory dose 50; 50% reduction in virus replication), vaccinia virus in Vero cells, called MIC50; for TI (therapeutic index, MTC/ID50) / Virus Rating (VR): Vero cells; for TI (therapeutic index, MTC/ID50): TI>50 indicates a useful compound; for Virus Rating (VR): VR >=1.0 significant, 0.5-0.9 marginal, <0.5 inactive, repeat lines are repeat tests.

A short description of series [2]: Cytotoxicity of test compound to Vero host cells (minimum toxic concentration). The conditions noted are these: monkey, MTC (minimum toxic concentration), footnote: lowest concentration giving 50% reduction in percent survival of viable host cells.

In the case of `Nc1ncnc2c1ncn2[C@@H]1O[C@H](CO)[C@@H](O)[C@@H]1O` [AraA, 9-β-D-arabinofuranosyladenine, reference compound], in series [1], the IC50 was found to be 2 µg/mL (≈ 7.48 µM); the “TI (therapeutic index, MTC/ID50)” value amounted to 13.3; the “Virus Rating (VR)” value was 1.0. The compound further registered an MCC in series [2] above 320 µg/mL.

`Nc1c2ncn([C@@H]3O[C@H](CO)[C@@H](O)[C@H]3O)c2nc[n+]1[O-]` [Compound 1a, Adenosine-N^1 -oxide]: in series [1], the IC50 worked out at 0.32 µg/mL (≈ 1.13 µM); the “TI (therapeutic index, MTC/ID50)” value came to 312; the “Virus Rating (VR)” value is above 2.4. This compound also returned an MCC in series [2] of 100 µg/mL.

For `Nc1c2ncn([C@H]3C[C@H](O)[C@@H](CO)O3)c2nc[n+]1[O-]` [Compound 1b, 2'-Deoxyadenosine-N^1-oxide], in series [1], the IC50 came to 3.06 µg/mL (≈ 11.5 µM); the “TI (therapeutic index, MTC/ID50)” value stood at 104; the “Virus Rating (VR)” value is recorded as above 1.7. Besides, the MCC in series [2] was above 320 µg/mL.

In the case of `CNc1c2ncn([C@@H]3O[C@H](CO)[C@@H](O)[C@H]3O)c2nc[n+]1[O-]` [Compound 1c, 6-Methylamino-9-β-D-ribofuranosylpurine-N^1-oxide], in series [1], the IC50 is 0.45 µg/mL (≈ 1.51 µM); the “TI (therapeutic index, MTC/ID50)” value was 708; the “Virus Rating (VR)” value is recorded as above 2.4. The compound also came in with an MCC in series [2] of 320 µg/mL.

`Cc1cccc(COn2cnc3c(ncn3[C@@H]3O[C@H](CO)[C@@H](O)[C@H]3O)c2=N)c1.[O-][Cl+3]([O-])([O-])O` [Compound 2a, 1-(3-Methylbenzyloxy)adenosine, perchloric acid salt]: in series [1], the IC50 was determined as 0.41 µg/mL; the “TI (therapeutic index, MTC/ID50)” value is 781 and 487; the “Virus Rating (VR)” value is reported as above 2.4. In series [2], the MCC is above 320 µg/mL.

With `Cc1cc(C)cc(COn2cnc3c(ncn3[C@@H]3O[C@H](CO)[C@@H](O)[C@H]3O)c2=N)c1.[O-][Cl+3]([O-])([O-])O` [Compound 2aa, 1-(3,5-Dimethylbenzyloxy)adenosine, perchloric acid salt], in series [1], the IC50 is 0.45 µg/mL; the “TI (therapeutic index, MTC/ID50)” value was 710 and > 1000. The compound also came in with an MCC in series [2] of 320 µg/mL.

`Cc1ccc(COn2cnc3c(ncn3[C@@H]3O[C@H](CO)[C@@H](O)[C@H]3O)c2=N)cc1.[O-][Cl+3]([O-])([O-])O` [Compound 2b, 1-(4-Methylbenzyloxy)adenosine, perchloric acid salt]: in series [1], the IC50 is 0.11 µg/mL; the “TI (therapeutic index, MTC/ID50)” value is 917; the “Virus Rating (VR)” value is 2.4. The compound further returned an MCC in series [2] of 100 µg/mL.

As for `Cc1ccc(C)c(COn2cnc3c(ncn3[C@@H]3O[C@H](CO)[C@@H](O)[C@H]3O)c2=N)c1.[O-][Cl+3]([O-])([O-])O` [Compound 2bb, 1-(2,5-Dimethylbenzyloxy)adenosine, perchloric acid salt], in series [1], the IC50 was 0.38 µg/mL; the “TI (therapeutic index, MTC/ID50)” value is > 850 and > 1350. In series [2], this compound displayed an MCC of 320 µg/mL.

With `Cc1ccccc1COn1cnc2c(ncn2[C@@H]2O[C@H](CO)[C@@H](O)[C@H]2O)c1=N.[O-][Cl+3]([O-])([O-])O` [Compound 2c, 1-(2-Methylbenzyloxy)adenosine, perchloric acid salt], in series [1], the IC50 is 0.32 µg/mL; the “TI (therapeutic index, MTC/ID50)” value is on record as 1000; the “Virus Rating (VR)” value is listed as above 2.4. The compound also had an MCC in series [2] above 320 µg/mL.

On to `COc1ccc(COn2cnc3c(ncn3[C@@H]3O[C@H](CO)[C@@H](O)[C@H]3O)c2=N)cc1.[O-][Cl+3]([O-])([O-])O` [Compound 2d, 1-(4-Methoxybenzyloxy)adenosine, perchloric acid salt], for which, in series [1], the IC50 was found to be 0.01 µg/mL.

Consider `CC(On1cnc2c(ncn2[C@@H]2O[C@H](CO)[C@@H](O)[C@H]2O)c1=N)c1ccccc1.[O-][Cl+3]([O-])([O-])O` (stereo partly shown) [Compound 2f, 1-(1-Phenylethyloxy)adenosine, perchloric acid salt], for which the IC50 in series [1] is below 0.32 µg/mL.

The compound `N#Cc1ccccc1COn1cnc2c(ncn2[C@@H]2O[C@H](CO)[C@@H](O)[C@H]2O)c1=N.[O-][Cl+3]([O-])([O-])O` [Compound 2w, 1-(2-Cyanobenzyloxy)adenosine, perchloric acid salt] showed an MCC in series [2] above 320 µg/mL.
